Assays:
[1] = tested on: male erectile dysfunction; conditions: intranasal; cited from earlier work
[2] = tested on: male erectile dysfunction; conditions: monotherapy or combination as stated; cited from earlier work
[3] = From the text: Suitable pharmaceutical vehicles are well known to those skilled in the art and are described in several manuals, including Remington's Pharmaceutical Sciences, 15th edition. […] Similarly, formulations containing PGE1, papaverine, phentolamine and atropine, should be kept under refrigeration.
[4] = in vivo; cited from earlier work
[5] = tested on: male erectile dysfunction; conditions: in vivo; cited from earlier work

Question: Which “time to response in producing an erection” value [1] does the source give for `CCCc1nn(C)c2c(=O)[nH]c(-c3cc(S(=O)(=O)N4CCN(C)CC4)ccc3OCC)nc12` [sildenafil] here?
Answer: within five minutes

Question: For `Cc1ccc(N(CC2=NCCN2)c2cccc(O)c2)cc1` [Phentolamine, phentolamine], which erectile response [2] is on record?
Answer: does not reliably produce an erection sufficient for intercourse

Question: For `CCCCC[C@H](O)/C=C/[C@H]1[C@H](O)CC(=O)[C@@H]1CCCCCCC(=O)O` [PGE1, Prostaglandin E1], which stability in storage [3] is on record?
Answer: not stable in water at room temperature

Question: And the half life [4]?
Answer: short half life compared with papaverine and phentolamine

Question: What about the “subjects with significant pain” value [5] of the same compound?
Answer: up to 40%

Question: For `COc1ccc(Cc2nccc3cc(OC)c(OC)cc23)cc1OC` [papaverine], which erectile response [2] is on record?
Answer: unpredictable response
